From PubChem BioAssay (NCI)
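Test compounds were applied to cells in 96-well plates for 48 hours at 5 doses. Definition used: TGI = concentration required for complete inhibition of growth.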

Key:
Assay in all cases: NCI tumour cell line growth inhibition, 48 h
OVCAR-8 ovarian = test system: OVCAR-8 ovarian
MDA-MB-435 = test system: MDA-MB-435
MCF7 breast = test system: MCF7 breast
SR leukemia = test system: SR leukemia
MDA-MB-231 breast = test system: MDA-MB-231 breast
ACHN renal = test system: ACHN renal
NCI-H226 lung = test system: NCI-H226 lung
SK-MEL-28 melanoma = test system: SK-MEL-28 melanoma
EKVX NSCLC = test system: EKVX NSCLC
COLO 205 colon = test system: COLO 205 colon
MOLT-4 leukemia = test system: MOLT-4 leukemia
UO-31 renal = test system: UO-31 renal
KM12 colon = test system: KM12 colon
M14 melanoma = test system: M14 melanoma
NCI-H460 lung = test system: NCI-H460 lung
HCC-2998 colon = test system: HCC-2998 colon

| SMILES | TGI (OVCAR-8 ovarian) [µM] | TGI (MDA-MB-435) [µM] | TGI (MCF7 breast) [µM] | TGI (SR leukemia) [µM] | TGI (MDA-MB-231 breast) [µM] | TGI (ACHN renal) [µM] | TGI (NCI-H226 lung) [µM] | TGI (SK-MEL-28 melanoma) [µM] | TGI (EKVX NSCLC) [µM] | TGI (COLO 205 colon) [µM] | TGI (MOLT-4 leukemia) [µM] | TGI (UO-31 renal) [µM] | TGI (KM12 colon) [µM] | TGI (M14 melanoma) [µM] | TGI (NCI-H460 lung) [µM] | TGI (HCC-2998 colon) [µM] |
| --- | --- | --- | --- | --- | --- | --- | --- | --- | --- | --- | --- | --- | --- | --- | --- | --- |
| CC(=O)O[C@@H]1[C@@H](C)[C@]2(CC(c3ccoc3)OC2O)C2CCC3O[C@]3(C)[C@]2(C)[C@@H]1OC(C)=O (stereo partly drawn) | > 100 | > 100 | > 100 | 58 | > 100 | > 100 | 87.9 | 81.4 | > 100 | 40 | 64.9 | > 100 | 86.8 | > 100 | > 100 |  |
| CCCC(=O)n1[nH]c(=O)n(C(C)(C)C)c1=O | > 100 | > 100 | > 100 | > 100 | > 100 | > 100 | > 100 | > 100 | > 100 | > 100 | > 100 | > 100 | > 100 | > 100 | > 100 | > 100 |
| Nc1nc(NNc2ccccc2F)cc(=O)[nH]1 | > 100 | > 100 | > 100 | > 100 | > 100 | > 100 | > 100 | > 100 | > 100 | > 100 | > 100 | > 100 | > 100 | > 100 | > 100 | > 100 |
| CNC(=O)C1CCC(=O)N1CN(C(C)=O)c1ccccc1 (stereo not drawn) | > 100 | > 100 | > 100 | 84 | > 100 | > 100 | > 100 | > 100 | > 100 | > 100 | > 100 | > 100 | > 100 | > 100 | > 100 |  |
| S=C1NCCN1C(=S)NC1CCCCC1 | > 100 | 67.6 | > 100 | > 100 | > 100 | > 100 | 75.2 | > 100 | > 100 | 59.2 | > 100 | 81.6 | 65.3 | 51.2 | 48 | 42.3 |
| CC(=O)N1N=C(c2ccc3ccccc3c2O)CC1c1ccc(Cl)cc1Cl (stereo not drawn) | > 100 | > 100 | > 100 | > 100 | > 100 | > 100 | > 100 | > 100 |  | > 100 | > 100 | > 100 | > 100 | > 100 | > 100 | > 100 |
| CC(C)[Si](Oc1cc2c3c(ccc2c(O)c1[C@@H](C)CO[Si](C)(C)C(C)(C)C)C(C)(C)CCC3)(C(C)C)C(C)C | > 100 | > 100 | > 100 | > 100 | > 100 | > 100 | > 100 | > 100 | > 100 | > 100 | > 100 | > 100 | > 100 | > 100 | > 100 |  |
| CN(C)C=NCc1ccc2c(c1)OCO2 | > 100 | > 100 | > 100 | > 100 | > 100 | > 100 | > 100 | > 100 | > 100 | > 100 | > 100 | > 100 | > 100 | > 100 | > 100 | > 100 |
| [O-]/N=N\c1on[n+](CCc2ccccc2)c1Cc1c(/N=N/[O-])on[n+]1CCc1ccccc1 | 46.4 | > 100 | > 100 | > 100 | 88.6 | > 100 | 98.3 | > 100 | > 100 | > 100 | > 100 | > 100 | > 100 | > 100 | > 100 | > 100 |
| Cc1ccc(N(C)S(=O)(=O)c2ccccc2)cc1 | > 100 | > 100 | > 100 | > 100 | > 100 | > 100 | > 100 | > 100 | > 100 | > 100 | > 100 | > 100 | > 100 | > 100 | > 100 | > 100 |
| Nc1nc(Cl)cc(NCC2(CO)CC(c3ccccc3)C2)n1 (stereo not drawn) | > 100 | > 100 | > 100 | > 100 | > 100 | > 100 | > 100 | > 100 | 84.5 | > 100 | 93.9 | > 100 | > 100 | > 100 | > 100 |  |
| O=C(/C=C/c1cc(F)ccc1F)OCCc1ccccc1 | > 100 | > 100 | > 100 | > 100 | > 100 | > 100 | > 100 | > 100 | > 100 | > 100 | > 100 | > 100 | > 100 | > 100 |  | > 100 |
| COC(=O)C(=O)c1cc2ccccc2n1S(=O)(=O)c1ccccc1 | > 100 | > 100 | > 100 | > 100 | > 100 | > 100 |  | > 100 | > 100 | > 100 | > 100 | > 100 | > 100 | > 100 | > 100 | > 100 |
| Cc1cc(O)c2c(c1)C(=O)C=C(Br)C2=O | 42.3 | 27.6 | 23.4 | 42 | 33.8 | 29.3 | 34.8 | 29.7 | > 61.2 | 19.2 | 4.45 | 28.9 | > 55.8 | 29.5 | 45.9 | > 58.1 |
| O=C(Nc1ccccc1)c1cc2c(cc1Cl)SC(NNCCO)=NS2(=O)=O | > 100 | > 100 | > 100 | > 100 | > 100 | > 100 | > 100 | > 100 | > 100 | > 100 | > 100 | > 100 | > 100 | > 100 | > 100 | > 100 |
